The source of these data is ChEMBL document CHEMBL1144829, “2-Arylbenzoxazoles as novel cholesteryl ester transfer protein inhibitors: optimization via array synthesis” (Bioorg Med Chem Lett, 2008).

Experiment [1] deals with T1, Cholesteryl ester transfer protein (Homo sapiens, UniProt P11597).
T1 sequence (P11597 whole entry): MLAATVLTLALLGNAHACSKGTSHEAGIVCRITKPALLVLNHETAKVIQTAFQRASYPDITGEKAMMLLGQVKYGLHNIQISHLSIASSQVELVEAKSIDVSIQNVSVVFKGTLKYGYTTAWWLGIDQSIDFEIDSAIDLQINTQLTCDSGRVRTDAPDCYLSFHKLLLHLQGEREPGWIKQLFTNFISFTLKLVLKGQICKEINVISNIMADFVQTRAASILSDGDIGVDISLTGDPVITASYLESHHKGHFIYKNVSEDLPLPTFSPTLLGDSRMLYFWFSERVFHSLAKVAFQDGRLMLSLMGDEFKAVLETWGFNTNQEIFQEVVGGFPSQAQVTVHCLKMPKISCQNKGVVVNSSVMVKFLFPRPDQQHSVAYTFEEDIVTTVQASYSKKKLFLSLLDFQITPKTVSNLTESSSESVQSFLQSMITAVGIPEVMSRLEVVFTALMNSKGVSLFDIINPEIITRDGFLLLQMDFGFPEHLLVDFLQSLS
Briefly: Inhibition of human CETP by scintillation proximity assay. Background: Scintillation proximity formats need no separation of bound from free tracer.

The target of experiment [2] is T1, Cholesteryl ester transfer protein. In words: Inhibition of CETP in human whole plasma.

For `Cc1cc(Cl)ccc1OCC(=O)Nc1ccc(-c2nc3cc(C#N)ccc3o2)cc1`, the 50% inhibitory concentration (IC50) (usually the concentration at which inhibition is half-maximal) was 85 nM in experiment [1] and 40000 nM in experiment [2].
For the molecule `N#Cc1ccc2oc(-c3ccc(NC(=O)COc4ccc(Cl)c(C(F)(F)F)c4)cc3)nc2c1`, the IC50 worked out at 18 nM in experiment [1] and 4300 nM in experiment [2].
Turning to `Cc1cc(Br)ccc1OCC(=O)Nc1ccc(-c2nc3cc(C#N)ccc3o2)cc1`, the results for the IC50 in experiment [1] and in experiment [2] were 11 nM and 4300 nM, respectively.
For `COC(=O)c1c(Cl)ccc(OCC(=O)Nc2ccc(-c3nc4cc(C#N)ccc4o3)cc2)c1C`, the IC50 in experiment [1] was found to be 18 nM; in experiment [2] it was 1300 nM.
For `Cc1cc(C)c2oc(-c3ccc(NC(=O)COc4cccc(C(F)(F)F)c4)cc3)nc2c1`, the IC50 in experiment [1] is above 10000 nM; in experiment [2], 32000 nM.
As for `N#Cc1ccc2oc(-c3ccc(NC(=O)COc4ccc(Cl)c5c4CCC5)cc3)nc2c1`, the results for the IC50 in experiment [1] and in experiment [2] were 15 nM and 3200 nM, respectively.
In the same order, the values of `Cc1c(Cl)ccc(OCC(=O)Nc2ccc(-c3nc4cc(C#N)ccc4o3)cc2)c1C` are 10 nM and 910 nM.
For `Cc1cc(C)c2oc(-c3ccc(NC(=O)COc4ccc(Cl)c(C)c4C)cc3)nc2c1`, the IC50 in experiment [1] amounted to 40 nM; in experiment [2], 1700 nM.
With `COC(=O)c1c(Cl)ccc(OCC(=O)Nc2ccc(-c3nc4cc(C)cc(C)c4o3)cc2)c1C`, the IC50 in experiment [1] worked out at 42 nM; in experiment [2] it was 2800 nM.
With `Cc1cc(C)c2oc(-c3ccc(NC(=O)COc4ccc(Cl)c5c4CCC5)cc3)nc2c1`, the IC50 in experiment [1] was found to be 56 nM; in experiment [2] it was 2500 nM.
Regarding `Cc1cc(C)c2oc(-c3ccc(NC(=O)COc4ccc(C)c5c4CCC5)cc3)nc2c1`, the IC50 stood at 85 nM in experiment [1] and 3500 nM in experiment [2].
